US7691966B2, “Method for quantitative analysis for prolyl hydroxylase activity using fluorescence polarization” (Korea Institute of Science and Technology, priority 2005, dated 2010)

What was measured:
[1] = target: T1, VBC protein (Homo sapiens, UniProt P40337); test: Fluorescence polarization binding of fluorescent labeled HIF-1 peptide to VBC protein
T1 construct: made in house; host or cells: E. coli BL21 (DE3)
Description: Human von Hippel-Lindau gene fragment (corresponding to 54˜213 a.a. region of the amino acid sequence represented by GenBank Accession No: NM000551) and human Elongin B fragment (corresponding to 1˜118 a.a. region of the amino acid sequence represented by GenBank Accession No: NM007108) were inserted into a modified pGEX-4T-1, resulting in plasmid pGEX4T-VHL-EB. Likewise, human Elongin C fragment (corresponding to 17˜112 a.a. region of the amino acid sequence represented by GenBank Accession No: NM005648) was inserted into pET29b vector, resulting in plasmid PDEV-EC (Novagen). The plasmids were co-expressed massively in E. coli BL21 (DE3) (Novagen).
(§1) Fluorescence polarization changes were measured during the formation of protein-ligand complex of VBC protein and the above peptides prepared in Example 1, to investigate binding capacity and characteristics thereof. Fluorescence polarization was measured by using fluorometer (Perkin-Elmer), and the size of slit was 5 nm and integration time was 5 seconds. A buffer solution containing 50 mM Tris and 120 mM NaCl, pH 8.0, was supplemented with NP-40 (nonidet P40) by 0.5%, for being utilized for the experiments of binding and interaction.
After mixing, fluorescence polarization was measured.

[2] = target: T1, VBC protein; test: Fluorescence polarization competition assay for inhibitors of F-HyP564 peptide-VBC protein binding; details: 100 nM F-HyP564, 500 nM VBC, competitor 0 to 500 μM
Description: as §1
Fluorescence polarization of the reaction solution was measured.
After mixing, fluorescence polarization changes were measured.

| Molecule | fluorescence polarization change on addition of competitor peptide [2] | also measured |
| --- | --- | --- |
| CC[C@H](C)[C@H](NC(=O)[C@H](Cc1ccc(O)cc1)NC(=O)[C@@H]1C[C@@H](O)CN1C(=O)[C@H](C)NC(=O)[C@H](CC(C)C)NC(=O)[C@H](C)NC(=O)[C@H](CCC(=O)O)NC(=O)[C@H](CC(C)C)NC(=O)[C@H](CC(=O)O)NC(=O)[C@H](CC(C)C)NC(=O)[C@H](CC(=O)O)NC(=O)CCCCCNC(=S)Nc1ccc2c(c1)C(=O)OC21c2ccc(O)cc2Oc2cc(O)ccc21)C(=O)N1CCC[C@H]1C(=O)N[C@@H](C)C(=O)N[C@@H](CC(=O)O)C(=O)N[C@@H](CC(=O)O)C(=O)N[C@@H](CC(=O)O)C(=O)N[C@@H](Cc1ccccc1)C(=O)N[C@@H](CCC(N)=O)C(=O)N[C@@H](CC(C)C)C(=O)N[C@@H](CCCNC(=N)N)C(=O)O [F-HyP564] |  | fluorescence polarization of reactant with VBC protein compared with probe itself ([1]; reacted with VBC protein at 25° C.): remarkably increased |
| DDDFQLR [C] | only a slight decrease |  |
| F-P564: FITC-aminocaproic acid-labeled HIF-1α 556-575 peptide without hydroxyproline, SEQ ID NO:1 |  | fluorescence polarization value ([1]; 100 nM peptide, 800 nM VBC protein, 25° C.): 0.066 |

Second part, led by results:

| fluorescence polarization change on addition of competitor peptide [2] | Molecule | also measured |
| --- | --- | --- |
| remarkably decreased | CC[C@H](C)[C@H](NC(=O)[C@H](Cc1ccc(O)cc1)NC(=O)[C@@H]1C[C@@H](O)CN1C(=O)[C@H](C)NC(=O)[C@H](CC(C)C)NC(=O)[C@H](C)N)C(=O)N1CCC[C@H]1C(=O)N[C@@H](C)C(=O)O [Hy-N fragment, ALAHyPYIPA] |  |
| only a slight decrease | ALAPYIPA [N] |  |
